Patent publication US20190375778A1, “ADENOSINE DERIVATIVES FOR USE IN THE TREATMENT OF CANCER” (NuCana plc, priority 2016, published 2019)

How the values were obtained:
Murine leukemia L1210 = assay: Cell proliferation (Coulter count) assay, L1210; format: cell-based; conditions: Mus musculus, 48 h, read-out: absolute IC50, L1210
Description: (§1) Lovo: cell line derived from a metastatic site in a patient with colon cancer MCF7: human oestrogen sensitive mammary epithelial cell line PC3: human prostate cancer cell line A549: cancerous lung tissue derived cells L1210: lymphoblast cell line derived from a mouse with lymphocytic leukaemia FM3A: mammary carcinoma murine cells CEM: human T-lymphoblasts, derived from the blood of a patient with acute lymphoblastic leukaemia HeLa: epithelial cells from a patient with cervical adenocarcinoma
(§2) Murine leukemia L1210, human T-lymphocyte CEM, and human cervix carcinoma HeLa cells were obtained from the American Type Culture Collection (ATCC) (Rockville, Md.). All cells were maintained in Dulbecco's modified Eagle's medium (DMEM) (Invitrogen, Carlsbad, Calif.) with 10% fetal bovine serum (FBS) (Biochrom AG, Berlin, Germany), 10 mM Hepes, and 1 mM sodiumpyruvate (Invitrogen). Cells were grown at 37° C. in a humidified incubator with a gas phase of 5% CO2. Monolayer cells (HeLa and […]) were seeded in 96-well microtiter plates (Nunc, Roskilde, Denmark) at 10 000 cells/well. After 24 h, an equal volume of fresh medium containing the test compounds was added. On day 5, cells were trypsinized and counted in a Coulter counter (Analis, Suarlee, Belgium). Suspension cells (L1210, CEM) were seeded in 96-well microtiter plates (Nunc) at 60 000 cells/well in the presence of a given amount of the test compounds. The cells were allowed to proliferate for 48 h (L1210) or 72 h (CEM) and were then counted in a Coulter counter. The 50% inhibitory concentration (IC50) was defined as the compound concentration required to reduce cell proliferation by 50%. The cytostatic activity of the compounds was determined after 3 days, as outlined above.

Lovo = assay: MTT cytotoxicity assay, Lovo; format: cell-based; conditions: Homo sapiens, 96 h compound exposure, read-out: absolute IC50, Lovo
Description: as §1
(§3) Anti-tumour evaluation in MCF7, LoVo, A549 and PC3 cell lines was performed by MTT assay. Compounds were prepared as 0.1-100 mM stock solutions dissolved in DMSO and stored at −20° C. Cells were seeded into 96-well microtitre plates at a density of 5×10^3 cells per well and allowed 24 hours to adhere. Decimal compound dilutions were prepared in medium immediately prior to each assay (final concentration 0.1-100 μM). Experimental medium was DMEM+10% FCS (PC3 and Lovo) or RPMI+10% heat inactivated FCS (A549 and MCF7). Following 96 h compound exposure at 37° C., 5% CO2, MTT reagent (Sigma Aldrich) was added to each well (final concentration 0.5 mg/ml). Incubation at 37° C. for 4 h allowed reduction of MTT by viable cells to an insoluble formazan product. MTT was removed and formazan solubilised by addition of 10% Triton X-100 in PBS. Absorbance was read on a Tecan Sunrise spectrophotometer at 540 nm as a measure of cell viability; thus inhibition relative to control was determined (IC50).

human T-lymphocyte CEM = assay: Cell proliferation (Coulter count) assay, CEM; format: cell-based; conditions: 72 h, read-out: absolute IC50, CEM
Description: as §1, §2

FM3A = assay: Cytotoxicity, FM3A; format: cell-based, murine; conditions: Mus musculus, read-out: absolute IC50, FM3A
Description: as §1

[1] = tested on: human cervix carcinoma HeLa cells; assay: Cell proliferation (Coulter count) assay, HeLa; format: cell-based; conditions: 120 h, cell count on day 5, read-out: absolute IC50, HeLa
Description: as §1, §2

MCF7 = assay: MTT cytotoxicity assay, MCF7; format: cell-based; conditions: Homo sapiens, 96 h compound exposure, read-out: absolute IC50, MCF7
Description: as §1, §3

A549 = assay: MTT cytotoxicity assay, A549; format: cell-based; conditions: Homo sapiens, 96 h compound exposure, read-out: absolute IC50, A549
Description: as §1, §3

PC3 = assay: MTT cytotoxicity assay, PC3; format: cell-based; conditions: Homo sapiens, PC-3, 96 h compound exposure, read-out: absolute IC50, PC3
Description: as §1, §3

[2] = tested on: KG1a leukaemic stem cell compartment (Lin−/CD34+/CD38−/CD123+); assay: Leukaemic stem cell compartment in KG1a; format: cell-based; conditions: for Change relative to control (%): % LSC compartment versus the series' control; for KG-1a (CD34+/CD38−/CD123+) % compartment: LSC as percentage of viable cells left, 72 hrs; for targeting of leukaemic/cancer stem cells in words: KG1a, compared to 8-chloroadenosine (FIG. 2, FIG. 8)
Experimental: (§4) A further comparative analysis of the toxicity of compounds in the KG1a cell line over an extended dose range was carried out, and the relative effect assessed of the compounds on the leukaemic stem cell compartment within the KG1a cell line, across the entire dose range. Thus, experimental tests were performed on certain compounds of the present invention to assess their ability to target cancer stem cells in a leukaemic cell line. The acute myeloid leukaemia (AML) cell line, KG1a, was employed to assess the relative effect of compounds on the stem cell compartment. The KG1a cell line was selected because it manifests a minor stem cell-like compartment with a distinct immunophenotype (Lin^−/CD34^+/CD38^−/CD123^+).
(§5) Cells of the KG1a cell line were maintained in RPMI medium (Invitrogen, Paisley, UK) supplemented with 100 units/ml penicillin, 100 μg/ml streptomycin and 20% foetal calf serum. Cells were subsequently aliquoted (10^5 cells/100 μl) into 96-well plates and were incubated at 37° C. in a humidified 5% carbon dioxide atmosphere for 72 hrs in the presence of nucleoside analogues and their respective nucleotide analogues (known as ProTides) at concentrations that were experimentally determined for each series of compounds. In addition, control cultures were carried out to which no drug was added. Cells were subsequently harvested by centrifugation and were analyzed by flow cytometry using the Annexin V assay.
KG1a cells were cultured for 72 hrs in the presence of a wide range of concentrations of each compound assayed. Cells were then harvested and labelled with a cocktail of anti-lineage antibodies (PE-cy7), anti-CD34 (FITC), anti-CD38 (PE) and anti-CD123 (PERCP cy5). The sub-population expressing a leukaemic stem cell (LSC) phenotype were subsequently identified and were expressed as a percentage of all viable cells left in the culture. The percentages of stem cells remaining were then plotted on a dose-response graph and the effects of the compounds were compared with 8-chloroadenosine.
(§6) The data obtained in these experiments were evaluated using one way ANOVA. All data was confirmed as Gaussian or a Gaussian approximation using the omnibus K2 test. LD50 values were calculated from the non-linear regression and line of best-fit analysis of the sigmoidal dose-response curves. All statistical analyses were performed using Graphpad Prism 6.0 software (Graphpad Software Inc., San Diego, Calif.).

KG1a cell line = assay: Annexin V/propidium iodide cytotoxicity, KG1a unsorted; format: cell-based; conditions: for LD50: Homo sapiens, KG-1a, Annexin V/propidium iodide, 72 hrs; for cytotoxic potency compared in words: KG1a, versus 8-chloroadenosine or other isomers (FIG. 1, FIG. 7)
Experimental: as §4, §5
Cultured cells were harvested by centrifugation and then resuspended in 195 μl of calcium-rich buffer. Subsequently, 5 μl of Annexin V (Caltag Medsystems, Botolph Claydon, UK) was added to the cell suspension and cells were incubated in the dark for 10 mins prior to washing. Cells were finally resuspended in 190 μl of calcium-rich buffer together with 10 μl of propidium iodide. Apoptosis was assessed by dual-colour immunofluorescent flow cytometry as described previously. Subsequently LD50 values (the dose required to kill 50% of the cells in a culture) were calculated for each nucleoside analogue and ProTide.
as §6

RPMI-8226 = assay: CellTiterGlo viability assay, RPMI-8226; format: cell-based, Human; conditions: Homo sapiens, RPMI-8226, 72 h, read-out: IC50 RPMI-8226
Experimental: (§7) In vitro viability assay were performed to assess the effects of compounds on cell viability in selected cell lines over ˜72 hrs using the CellTiterGlo (CTG, Promega-G7573) assay. The tests were performed in duplicates with treatment of compounds at 9 points, 3.16 folds titration in 96 well plates over ˜72 hrs. The compound starting concentrations were 198 μM. Cell viability assay using CellTiterGlo in 96-well plate were performed. Compound treatment 72 hrs, standard growth conditions, duplicates. Compounds were dissolved to 40 mM with thawed […]. Compounds were serially diluted at 3.16 fold in thawed DMSO, and warmed to 37° C. before being dissolved in media (2 μl+200 μl). After compounds were dissolved in media, media containing compounds were warmed to 37° C. in incubator and then compounds in media were added to cell plates (50 μl+50 μl) in duplicates. The compounds' final concentrations were from […] to 19.9 nM. All compound solubilities were checked and recorded again, then the plates were transferred to CO2 tissue culture incubator immediately and incubated for 3 days. DMSO final concentration is 0.5%.

RL = assay: CellTiterGlo viability assay, RL; format: cell-based; conditions: Homo sapiens, RL, 72 h, read-out: IC50 RL
Experimental: as §7

HEL92.1.7 = assay: CellTiterGlo viability assay, HEL92.1.7; format: cell-based; conditions: Homo sapiens, HEL 92.1.7, 72 h, read-out: IC50 HEL92.1.7
Experimental: as §7

NCI-H929 = assay: CellTiterGlo viability assay, NCI-H929; format: cell-based; conditions: Homo sapiens, NCI-H929, 72 h, read-out: IC50 NCI-H929
Experimental: as §7

KG-1 = assay: CellTiterGlo viability assay, KG-1; format: cell-based; conditions: Homo sapiens, KG-1, 72 h, read-out: IC50 KG-1
Experimental: as §7

MV4-11 = assay: CellTiterGlo viability assay, MV4-11; format: cell-based; conditions: Homo sapiens, MV4-11, 72 h, read-out: IC50 MV4-11
Experimental: as §7

CCRFCEM = assay: CellTiterGlo viability assay, CCRFCEM; format: cell-based; conditions: Homo sapiens, CCRF-CEM, 72 h, read-out: IC50 CCRFCEM
Experimental: as §7

HL-60 = assay: CellTiterGlo viability assay, HL-60; format: cell-based; conditions: Homo sapiens, HL-60, 72 h, read-out: IC50 HL-60
Experimental: as §7

K562 = assay: CellTiterGlo viability assay, K562; format: cell-based; conditions: Homo sapiens, K562, 72 h, read-out: IC50 K562
Experimental: as §7

| Structure (SMILES) | IC50 (Murine leukemia L1210) [µM] | IC50 (Lovo) [µM] | IC50 (human T-lymphocyte CEM) [µM] | IC50 (FM3A) [µM] | IC50 [1] [µM] | IC50 (MCF7) [µM] | IC50 (A549) [µM] | IC50 (PC3) [µM] | further results |
| --- | --- | --- | --- | --- | --- | --- | --- | --- | --- |
| C[C@@H](NP(=O)(OC[C@H]1O[C@@H](n2c(Cl)nc3c(N)ncnc32)C(O)C1O)Oc1ccccc1)C(=O)OCc1ccccc1 (stereo partly drawn) [T, 5′-([(Benzyloxy-D-alanin-N-yl)-phenyl]-phosphatyl) 8-chloroadenosine] | 15 to 100 | 0.1 to 5 | 15 to 100 | 15 to 100 | 5 to 15 | 15 to 100 | 15 to 100 | 0.1 to 5 | – |
| C[C@H](NP(=O)(OC[C@H]1O[C@@H](n2cnc3c(N)nc(Cl)nc32)CC1O)Oc1cccc2ccccc12)C(=O)OCc1ccccc1 (some centres unmarked) [Comparative compound 2] | – | – | – | – | – | – | – | – | Change relative to control (%) [2]: −0.5%; KG-1a (CD34+/CD38−/CD123+) % compartment [2]: 3.5%; LD50 (KG1a cell line): 820 nM |
| CC(C)OC(=O)[C@H](C)NP(=O)(OC[C@H]1O[C@@H](n2c(Cl)nc3c(N)ncnc32)C(O)C1O)Oc1ccccc1 (stereo partly drawn) [W, 5′-([(Isopropyloxy-L-alanin-N-yl)-phenyl]-phosphatyl) 8-chloroadenosine] | 15 to 100 | 0.1 to 5 | 15 to 100 | 15 to 100 | 15 to 100 | 15 to 100 | 15 to 100 | 0.1 to 5 | – |
| C[C@H](NP(=O)(OC[C@H]1O[C@@H](n2cnc3c(N)nc(Cl)nc32)[C@H](F)C1O)Oc1cccc2ccccc12)C(=O)OCc1ccccc1 (some centres unmarked) [Comparative compound 1] | – | – | – | – | – | – | – | – | Change relative to control (%) [2]: −0.2%; KG-1a (CD34+/CD38−/CD123+) % compartment [2]: 3.3%; LD50 (KG1a cell line): 140 nM |
| Nc1ncnc2c1nc(Cl)n2[C@@H]1O[C@H](COP(=O)(N[C@@H](Cc2ccccc2)C(=O)OCc2ccccc2)Oc2ccccc2)C(O)C1O (stereo partly drawn) [U, 5′-([(Benzyloxy-L-phenylalanin-N-yl)-phenyl]-phosphatyl) 8-chloroadenosine] | 15 to 100 | 0.1 to 5 | 5 to 15 | 15 to 100 | 0.1 to 5 | 0.1 to 5 | 0.1 to 5 | 0.1 to 5 | – |
| C[C@H](NP(=O)(OC[C@H]1O[C@@H](n2c(Cl)nc3c(N)ncnc32)[C@H](O)[C@@H]1O)Oc1cccc2ccccc12)C(=O)OCc1ccccc1 (single isomer, unassigned) [Isomer A of Compound D] | – | – | – | – | – | – | – | – | targeting of leukaemic/cancer stem cells in words [2]: statistically significantly increased ability to target cancer stem cells; cytotoxic potency compared in words (KG1a cell line): significantly more potent |
| CCCCCOC(=O)CNP(=O)(OC[C@H]1O[C@@H](n2c(Cl)nc3c(N)ncnc32)C(O)C1O)Oc1cccc2ccccc12 (some centres unmarked) [O, 5′-([(Pent-1-yloxy-glycin-N-yl)-naphth-1-yl]-phosphatyl) 8-chloroadenosine] | 0.1 to 5 | – | 0.1 to 5 | – | 0.1 to 5 | – | – | – | IC50 (RPMI-8226): 5 to 15 µM; IC50 (RL): 15 to 100 µM; IC50 (HEL92.1.7): 15 to 100 µM; IC50 (NCI-H929): 15 to 100 µM; IC50 (KG-1): 15 to 100 µM; IC50 (MV4-11): 0.1 to 5 µM; IC50 (CCRFCEM): 15 to 100 µM; IC50 (HL-60): 15 to 100 µM; IC50 (K562): 5 to 15 µM |
| C[C@H](NP(=O)(OC[C@H]1O[C@@H](n2c(Cl)nc3c(N)ncnc32)C(O)C1O)Oc1ccccc1)C(=O)OC1CCCCC1 (stereo partly drawn) [X, 5′-([(Cyclohexyloxy-L-alanin-N-yl)-phenyl]-phosphatyl) 8-chloroadenosine] | – | 0.1 to 5 | – | – | – | 0.1 to 5 | 15 to 100 | 0.1 to 5 | – |
| Nc1ncnc2c1nc(Cl)n2[C@@H]1O[C@H](COP(=O)(NCC(=O)OCc2ccccc2)Oc2ccccc2)[C@@H](O)[C@H]1O (single isomer, unassigned; isomer a) [Isomer A of Compound B] | – | – | – | – | – | – | – | – | targeting of leukaemic/cancer stem cells in words [2]: statistically significantly increased ability to target cancer stem cells; cytotoxic potency compared in words (KG1a cell line): significantly more potent |
